Usually EC50 stands for the concentration giving half of the maximal effect. The inhibition is the change of the read-out against control, counted positive when it falls.

Assay [1] relates to Wnt activity (Sp5-Luc reporter gene, SW480 colon carcinoma cells). In words: Screening assay for Wnt activity: Sp5-Luc reporter gene assay in SW480 cells. The assay is classed as cell-based, human. The note with it: Homo sapiens, overnight incubation. An outline of the steps: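 SW480 cells stably transduced with a luciferase reporter driven by an Sp5 promoter of eight TCF/LEF sites were plated at 4,000 cells/well in 1% FBS medium. They were exposed overnight at 37° C to a 10-point 1:3 dilution series from 10 μM (0.1% DMSO). Luminescence was normalized to DMSO for four-parameter EC50, or percent inhibition at 10 μM.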

Assay [2] concerns primary human fibroblasts derived from IPF patients (LL29 cells). In words: Inhibition of the fibrotic process: αSMA staining in TGF-β1 treated LL29 fibroblasts. The assay is classed as cell-based. The following applies: Homo sapiens, Fibroblast; for EC50: 96 h, TGF-β1 20 ng/mL, 4 days, % αSMA positive cells. An outline of the steps:
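IPF patient-derived LL29 fibroblasts in 1% FBS medium got compound (11-point, 10 μM to 1.87 nM, 0.1% DMSO) plus TGF-β1 20 ng/mL, 4 days at 37° C. αSMA-positive live cells (SYTOX-excluded) were imaged, normalized to TGF-β1 controls and fitted for EC50; % inhibition at 10 μM given when EC50 >10 μM.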

A further assay has as its system SW480 colon cancer cells. In words: Cell viability assay (CellTiter-Blue) in SW480 colon cancer cells. The note with it: Homo sapiens, 96 h, four days, CellTiter-Blue. The assay is classed as cell-based, human. An outline of the steps: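 Resazurin reduction (Ex 560/Em 590 nm, ~3 h reagent incubation) served as the viability read-out after SW480 cells were treated for four days at 37 °C. Doses ran from 10 μM down to 0.0045 μM in eight 1:3 steps. Curves fitted non-linearly for EC50, else % inhibition at 10 μM reported.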
Background: Alamar Blue is a resazurin reagent that responds to reducing activity.

Take `CN(C)CCNc1cc(F)cc(-c2cccc3[nH]c(-c4n[nH]c5ncc(-c6cncc(OC7CCCCC7)c6)cc45)cc23)c1` [Compound 785, N^1-(3-(2-(5-(5-(Cyclohexyloxy)pyridin-3-yl)-1H-pyrazolo[3,4-b]pyridin-3-yl)-1H-indol-4-yl)-5-fluorophenyl)-N^2,N^2-dimethylethane-1,2-diamine]: the EC50 came out at 2950 nM in assay [1], 1240 nM in assay [2] and 1640 nM with SW480 colon cancer cells.
On to `c1ccc(COc2cncc(-c3cnc4[nH]nc(-c5cc6ncccc6[nH]5)c4c3)c2)cc1` [Compound 1006, 5-(5-(Benzyloxy)pyridin-3-yl)-3-(1H-pyrrolo[3,2-b]pyridin-2-yl)-1H-pyrazolo[3,4-b]pyridine], for which the EC50 is 714 nM in assay [1], over 10000 nM in assay [2] and 1440 nM in the assay on SW480 colon cancer cells. Besides, in assay [2] (at 10 μM, given for EC50 of >10 μM, TGF-β1, αSMA, read-out: percent inhibition at 10 μM), the inhibition at 10 µM came to 24.8%.
